# Reference: patent publication US9079895B2, “Morpholino compounds, uses and methods” (University of Dundee, priority 2012, dated 2015)
# Assays:
# Conditions in all cases: average of at least two experiments
# 5HT2b receptor = 5HT2b receptor (Homo sapiens (Human), UniProt P41595); test: Secondary radioligand binding assay, 5HT2b; parameters: key to Ki 5HT2b: “—” indicates that a binding interaction was not detected;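 also: competition binding against a radioligand on membranes from transfected cell lines, 1.5 h incubation at room temperature, filter-retained radioactivity counted by liquid scintillation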
# Method: (§9) Assay Buffer: Standard Binding Buffer (50 mM Tris-HCl, 10 mM MgCl2, 1 mM EDTA, pH 7.4)
# (§10) Membrane Fraction Source: Transiently or stably transfected cell lines (e.g., HEK293, COS, CHO, NIH3T3)
# dopamine D3 receptor = dopamine D3 receptor (Homo sapiens (Human), UniProt P35462); test: Secondary radioligand binding assay, D3; parameters: key to Ki D3: “—” indicates that a binding interaction was not detected
# Method: (§1) 1. Secondary Radioligand Binding Assays
# (§2) The detailed experimental protocols for the radioligand and functional receptor assays are available on the NIMH PDSP website at http://pdsp.med.unc.edu/UNC-CH %20Protocol %20Book.pdf.
# (§3) Radioligand is diluted to five times the assay concentration (see Table 18) in Standard Binding Buffer. Typically, the assay concentration of radioligand is a value between one half the KD and the KD of a particular radioligand at its target. 50 μl aliquots of radioligand are dispensed into the wells of a 96-well plate containing 100 μl of Standard Binding Buffer. Then, duplicate 50 μl aliquots of the test and reference compound dilutions are added.
# (§4) The 250 μl reactions are incubated at room temperature and shielded from light (to prevent photolysis of light-sensitive ligands) for 1.5 hours, then harvested by rapid filtration onto Whatman GF/B glass fiber filters pre-soaked with 0.3% polyethyleneimine using a 96-well Brandel harverster. Four rapid 500 μl washes are performed with chilled Standard Binding Buffer to reduce non-specific binding. Filters are placed in 6 ml scintillation tubes and allowed to dry overnight. The next day, 4 ml of EcoScint scintillation cocktail (National Diagnostics) are added to each tube. The tubes are capped, labeled, and counted by liquid scintillation counting. […] The filter mats are dried, then scintillant is melted onto the filters and the radioactivity retained on the filters is counted in a Microbeta scintillation counter.
# (§5) Raw data (dpm) representing total radioligand binding (i.e. specific+non-specific binding) are plotted as a function of the logarithm of the molar concentration of the competitor (i.e. test or reference compound).
# (§6) B. Dopamine Receptors: D1, D2, D3, D4, D5 Assay Buffers: Dopamine Binding Buffer (50 mM NaCl, 50 mM HEPES-HCl, 5 mM MgCl2, 0.5 mM EDTA, pH 7.4) Membrane Fraction Source: Transiently or stably transfected cell lines (e.g. HEK293, COS, CHO, NIH3T3)
# (§7) The method is carried out in the manner described for the serotonin receptor assay above. Eleven dilutions (5× assay concentration) of the test and reference (see Table 19) compounds are prepared in Dopamine Binding Buffer by serial dilution, as previously described. Radioligand is diluted to five times the assay concentration (see Table 20) in Dopamine Binding Buffer.
# [1] = target: Alpha1A adrenergic receptor (Homo sapiens (Human), UniProt P35348); test: Secondary radioligand binding assay, Alpha1A; parameters: key to Ki Alpha1A: “—” indicates that a binding interaction was not detected
# From the text: (§8) 1. Secondary Radioligand Binding Assays The detailed experimental protocols for the radioligand and functional receptor assays are available on the NIMH PDSP website at http://pdsp.med.unc.edu/UNC-CH %20Protocol %20Book.pdf. Raw data (dpm) representing total radioligand binding (i.e. specific+non-specific binding) are plotted as a function of the logarithm of the molar concentration of the competitor (i.e. test or reference compound). […] C. Adrenergic Receptors: α1A, α1B, α2A, α2B, α2C, β1, β2, β3 Assay Buffers: For α1 receptors, α1 Binding Buffer (20 mM Tris-HCl, 145 mM NaCl, pH 7.4); for α2 receptors, α2 Binding Buffer (50 mM Tris-HCl, 5 mM MgCl2, pH 7.7); for β receptors, β Binding Buffer (50 mM Tris-HCl, 3 mM MnCl2, pH 7.7) Membrane Fraction Source: Transiently or stably transfected cell lines (e.g. HEK293, COS, CHO, NIH3T3) Protocol adapted from Arango et al. […] (1990), Gen. Psychiatry, 47: 1038-1047. The method is carried out in the manner described for the serotonin receptor assay above, except where described below. Eleven dilutions (5× assay concentration) of the test and reference (see Table 20) compounds are prepared in the appropriate buffer by serial dilution, as previously described. Radioligand is diluted to five times the assay concentration (see Table 21) in the appropriate buffer. […] Four rapid 500-μl washes are performed with chilled distilled water (for α1 and β receptors) or 0.1% polyethyleneimine (for α2 receptors) to reduce non-specific binding. Filters are placed in 6 ml scintillation tubes and allowed to dry overnight and the samples are treated to obtain data as described above. [table]
# dopamine D1 receptor = dopamine D1 receptor (Homo sapiens (Human), UniProt P21728); test: Secondary radioligand binding assay, D1; parameters: key to Ki D1: “—” indicates that a binding interaction was not detected
# Method: as §1, §2, §3, §4, §5, §6, §7
# 5HT3 receptor = 5HT3 receptor (Homo sapiens (Human), UniProt P46098); test: Secondary radioligand binding assay, 5HT3; parameters: key: “—” indicates that a binding interaction was not detected;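 also: radioligand competition binding on membranes from transfected cell lines, 1.5 h incubation at room temperature, filter-retained radioactivity measured by liquid scintillation counting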
# Method: as §9, §10
# 5HT6 receptor = 5HT6 receptor (Homo sapiens (Human), UniProt P50406); test: Secondary radioligand binding assay, 5HT6; parameters: key: “—” indicates that a binding interaction was not detected;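 also: competition displacement of radioligand from membranes of transfected cell lines expressing the receptor, 1.5 h at room temperature, bound radioactivity counted by scintillation after filtration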
# Method: as §9, §10
# 5HT1d receptor = 5HT1d receptor (Homo sapiens (Human), UniProt P28221); test: Secondary radioligand binding assay, 5HT1d; parameters: key to Ki 5HT1d: “—” indicates that a binding interaction was not detected;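 also: competition binding against a radioligand on membranes from transfected cell lines, 1.5 h at room temperature, filter-retained radioactivity counted by liquid scintillation, total binding plotted versus log competitor concentration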
# Method: as §9, §10
# dopamine D5 receptor = dopamine D5 receptor (Homo sapiens (Human), UniProt P21918); test: Secondary radioligand binding assay, D5; parameters: key to Ki D5: “—” indicates that a binding interaction was not detected
# Method: as §1, §2, §3, §4, §5, §6, §7
# dopamine D2 receptor = dopamine D2 receptor (Homo sapiens (Human), UniProt P14416); test: Secondary radioligand binding assay, D2; parameters: key to Ki D2: “—” indicates that a binding interaction was not detected
# Method: as §1, §2, §3, §4, §5, §6, §7
# [2] = target: Alpha1B adrenergic receptor (Homo sapiens (Human), UniProt P35368); test: Secondary radioligand binding assay, Alpha1B; parameters: key to Ki Alpha1B: “—” indicates that a binding interaction was not detected
# From the text: as §8
# 5HT7 receptor = 5HT7 receptor (Homo sapiens (Human), UniProt P34969); test: Secondary radioligand binding assay, 5HT7; parameters: key to Ki 5HT7: “—” indicates that a binding interaction was not detected;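 also: competition of test compound with radioligand for binding to membranes from transfected cell lines, 1.5 h incubation at room temperature, filter-bound radioactivity read by liquid scintillation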
# Method: as §9, §10
# Chain of 5HT6 receptor (P50406 whole entry): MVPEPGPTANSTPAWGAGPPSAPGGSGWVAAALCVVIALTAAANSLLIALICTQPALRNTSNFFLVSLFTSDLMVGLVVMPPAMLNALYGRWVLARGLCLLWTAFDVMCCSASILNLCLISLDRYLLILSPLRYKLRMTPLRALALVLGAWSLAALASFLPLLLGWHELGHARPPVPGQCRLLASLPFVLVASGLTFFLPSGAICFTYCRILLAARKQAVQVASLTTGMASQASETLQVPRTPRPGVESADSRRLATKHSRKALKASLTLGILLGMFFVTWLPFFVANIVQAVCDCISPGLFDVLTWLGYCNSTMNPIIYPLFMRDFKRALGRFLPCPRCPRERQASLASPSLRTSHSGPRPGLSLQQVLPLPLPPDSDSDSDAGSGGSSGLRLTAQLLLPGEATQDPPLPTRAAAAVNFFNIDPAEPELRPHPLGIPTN
# Chain of dopamine D1 receptor (P21728 whole entry): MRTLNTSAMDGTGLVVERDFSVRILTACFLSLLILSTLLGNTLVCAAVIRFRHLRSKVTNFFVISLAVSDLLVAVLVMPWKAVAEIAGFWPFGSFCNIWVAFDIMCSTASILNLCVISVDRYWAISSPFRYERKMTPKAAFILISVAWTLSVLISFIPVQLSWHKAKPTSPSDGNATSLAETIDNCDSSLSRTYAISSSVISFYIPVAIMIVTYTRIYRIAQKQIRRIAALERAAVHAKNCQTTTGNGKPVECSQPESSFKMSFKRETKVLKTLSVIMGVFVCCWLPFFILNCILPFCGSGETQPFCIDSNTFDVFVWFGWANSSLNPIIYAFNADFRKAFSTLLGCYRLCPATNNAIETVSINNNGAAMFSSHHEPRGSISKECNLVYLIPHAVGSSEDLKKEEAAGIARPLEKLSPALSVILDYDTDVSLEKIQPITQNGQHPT
# Chain of Alpha1A adrenergic receptor (P35348 whole entry): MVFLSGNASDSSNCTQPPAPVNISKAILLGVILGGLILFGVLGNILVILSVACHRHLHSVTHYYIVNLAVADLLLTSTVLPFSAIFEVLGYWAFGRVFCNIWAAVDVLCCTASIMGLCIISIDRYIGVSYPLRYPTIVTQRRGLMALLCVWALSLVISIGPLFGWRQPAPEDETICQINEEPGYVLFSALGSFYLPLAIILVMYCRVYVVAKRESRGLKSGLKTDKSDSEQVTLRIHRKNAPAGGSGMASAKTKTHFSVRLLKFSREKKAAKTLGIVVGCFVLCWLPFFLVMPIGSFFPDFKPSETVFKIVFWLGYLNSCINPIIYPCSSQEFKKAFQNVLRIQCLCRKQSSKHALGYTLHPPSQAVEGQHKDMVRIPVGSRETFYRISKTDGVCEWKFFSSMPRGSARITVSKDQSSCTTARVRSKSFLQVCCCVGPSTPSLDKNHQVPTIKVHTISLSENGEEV
# Chain of dopamine D2 receptor (P14416 whole entry, species assumed): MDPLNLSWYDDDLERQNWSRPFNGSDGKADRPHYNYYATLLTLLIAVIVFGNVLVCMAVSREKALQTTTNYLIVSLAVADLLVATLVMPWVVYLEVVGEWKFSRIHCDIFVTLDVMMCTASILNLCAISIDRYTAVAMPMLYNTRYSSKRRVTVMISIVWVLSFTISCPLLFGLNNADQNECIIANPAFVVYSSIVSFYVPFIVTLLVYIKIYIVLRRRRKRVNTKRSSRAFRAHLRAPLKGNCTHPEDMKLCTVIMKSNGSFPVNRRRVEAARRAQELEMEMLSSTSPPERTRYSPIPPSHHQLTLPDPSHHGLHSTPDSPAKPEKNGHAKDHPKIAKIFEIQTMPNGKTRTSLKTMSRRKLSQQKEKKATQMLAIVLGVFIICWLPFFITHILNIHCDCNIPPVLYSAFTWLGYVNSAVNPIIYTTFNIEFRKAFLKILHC
# Chain of dopamine D3 receptor (P35462 whole entry, species assumed): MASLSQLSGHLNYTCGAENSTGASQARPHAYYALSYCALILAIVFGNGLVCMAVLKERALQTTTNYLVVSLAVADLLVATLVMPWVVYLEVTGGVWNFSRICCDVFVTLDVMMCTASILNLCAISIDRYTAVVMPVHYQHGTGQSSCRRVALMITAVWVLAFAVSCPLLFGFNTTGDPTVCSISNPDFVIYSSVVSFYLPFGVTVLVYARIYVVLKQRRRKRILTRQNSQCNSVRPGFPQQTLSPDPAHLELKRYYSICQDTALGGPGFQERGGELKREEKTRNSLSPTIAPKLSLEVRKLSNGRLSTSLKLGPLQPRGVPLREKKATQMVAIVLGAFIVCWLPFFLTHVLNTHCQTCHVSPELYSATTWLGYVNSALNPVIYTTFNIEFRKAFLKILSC
# Chain of 5HT1d receptor (P28221 whole entry): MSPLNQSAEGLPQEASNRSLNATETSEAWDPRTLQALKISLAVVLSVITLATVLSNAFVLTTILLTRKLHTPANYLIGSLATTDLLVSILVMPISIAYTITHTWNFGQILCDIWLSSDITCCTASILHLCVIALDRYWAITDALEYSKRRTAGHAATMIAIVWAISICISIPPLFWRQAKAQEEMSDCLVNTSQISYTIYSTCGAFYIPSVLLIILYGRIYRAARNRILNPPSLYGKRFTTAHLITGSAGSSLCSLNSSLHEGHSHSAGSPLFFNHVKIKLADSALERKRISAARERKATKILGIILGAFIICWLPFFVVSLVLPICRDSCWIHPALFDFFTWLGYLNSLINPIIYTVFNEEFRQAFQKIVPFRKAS
# Chain of 5HT2b receptor (P41595 whole entry): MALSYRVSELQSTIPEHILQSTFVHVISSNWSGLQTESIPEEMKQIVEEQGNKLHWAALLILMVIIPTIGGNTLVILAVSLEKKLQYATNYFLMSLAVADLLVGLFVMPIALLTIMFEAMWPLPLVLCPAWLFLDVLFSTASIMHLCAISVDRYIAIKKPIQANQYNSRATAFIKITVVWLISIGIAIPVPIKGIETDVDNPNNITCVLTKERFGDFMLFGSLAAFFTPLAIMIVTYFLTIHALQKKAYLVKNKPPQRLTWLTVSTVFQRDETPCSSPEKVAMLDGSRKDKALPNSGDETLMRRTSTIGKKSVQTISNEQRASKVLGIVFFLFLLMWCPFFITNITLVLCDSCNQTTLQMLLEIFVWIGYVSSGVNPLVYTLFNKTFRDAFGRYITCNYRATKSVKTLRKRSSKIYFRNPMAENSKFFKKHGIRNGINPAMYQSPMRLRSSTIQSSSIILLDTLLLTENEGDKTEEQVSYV
# Chain of Alpha1B adrenergic receptor (P35368 whole entry): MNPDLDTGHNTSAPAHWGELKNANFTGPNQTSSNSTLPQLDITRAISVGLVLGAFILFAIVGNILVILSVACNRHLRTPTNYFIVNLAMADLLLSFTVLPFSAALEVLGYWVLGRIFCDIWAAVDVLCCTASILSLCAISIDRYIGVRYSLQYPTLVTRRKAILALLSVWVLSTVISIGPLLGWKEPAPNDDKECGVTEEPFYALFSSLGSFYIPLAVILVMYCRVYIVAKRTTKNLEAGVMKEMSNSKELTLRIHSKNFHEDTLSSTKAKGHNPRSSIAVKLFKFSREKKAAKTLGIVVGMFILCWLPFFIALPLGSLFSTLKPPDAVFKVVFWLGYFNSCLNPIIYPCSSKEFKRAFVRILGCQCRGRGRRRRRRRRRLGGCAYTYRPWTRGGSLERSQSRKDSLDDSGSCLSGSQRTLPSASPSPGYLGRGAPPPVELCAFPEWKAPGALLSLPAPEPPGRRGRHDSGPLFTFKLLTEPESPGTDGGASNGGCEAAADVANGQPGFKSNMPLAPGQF
# Chain of 5HT3 receptor (P46098 24-478): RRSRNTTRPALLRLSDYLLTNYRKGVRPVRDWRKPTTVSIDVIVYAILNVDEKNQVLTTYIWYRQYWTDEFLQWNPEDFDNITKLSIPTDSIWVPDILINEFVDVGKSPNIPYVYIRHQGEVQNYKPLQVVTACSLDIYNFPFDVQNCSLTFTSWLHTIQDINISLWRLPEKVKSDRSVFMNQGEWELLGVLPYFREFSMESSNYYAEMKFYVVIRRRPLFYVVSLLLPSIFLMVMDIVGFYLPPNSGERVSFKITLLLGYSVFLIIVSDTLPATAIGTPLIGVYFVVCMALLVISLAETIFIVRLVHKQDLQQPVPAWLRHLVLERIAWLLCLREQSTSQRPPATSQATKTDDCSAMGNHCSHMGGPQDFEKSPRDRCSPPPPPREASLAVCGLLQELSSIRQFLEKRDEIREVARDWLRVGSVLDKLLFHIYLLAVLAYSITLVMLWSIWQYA
# Chain of dopamine D5 receptor (P21918 whole entry): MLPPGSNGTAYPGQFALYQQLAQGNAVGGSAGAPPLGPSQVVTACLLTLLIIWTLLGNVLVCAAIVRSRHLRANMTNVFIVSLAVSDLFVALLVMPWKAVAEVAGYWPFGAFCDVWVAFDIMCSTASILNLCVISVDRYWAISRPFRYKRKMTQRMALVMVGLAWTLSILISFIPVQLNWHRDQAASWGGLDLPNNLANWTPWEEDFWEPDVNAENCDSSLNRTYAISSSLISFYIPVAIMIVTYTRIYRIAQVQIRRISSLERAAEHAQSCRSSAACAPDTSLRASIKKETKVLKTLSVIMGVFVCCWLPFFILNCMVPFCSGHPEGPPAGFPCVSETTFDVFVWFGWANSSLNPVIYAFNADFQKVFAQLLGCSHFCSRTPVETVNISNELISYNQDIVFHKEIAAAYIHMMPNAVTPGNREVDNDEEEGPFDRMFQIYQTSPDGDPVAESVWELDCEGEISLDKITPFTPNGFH
SMILES,Ki 5HT2b (5HT2b receptor),Ki D3 (dopamine D3 receptor),Ki Alpha1A [1],Ki D1 (dopamine D1 receptor),Ki 5HT3 (5HT3 receptor),Ki 5HT6 (5HT6 receptor),Ki 5HT1d (5HT1d receptor),Ki D5 (dopamine D5 receptor),Ki D2 (dopamine D2 receptor),Ki Alpha1B [2],Ki 5HT7 (5HT7 receptor),Ki (5HT2b receptor) [µM],Ki (dopamine D3 receptor) [µM],Ki (dopamine D1 receptor) [µM],Ki [1] [µM],Ki (5HT1d receptor) [µM],Ki (dopamine D2 receptor) [µM],Ki [2] [µM],Ki (5HT7 receptor) [µM],Ki (dopamine D5 receptor) [µM]
"O=C(CN1CCO[C@@H](COc2ccccn2)C1)N1CCc2ccccc21 [Compound 14r, (R)-1-(Indolin-1-yl)-2-(2-((pyridin-2-yloxy)methyl)morpholino)ethanone]",—,—,—,—,—,—,—,—,—,—,—,,,,,,,,,
"c1ccc(OC[C@H]2CN(CCN3CCc4ccccc43)CCO2)nc1 [Compound 15r, (R)-4-(2-(Indolin-1-yl)ethyl)-2-((pyridin-2-yloxy)methyl)morpholine]",,,—,—,—,—,—,—,—,—,—,0.6,> 10,,,,,,,
Cc1ccnc(OC[C@H]2CN(CC(=O)N3CCc4ccccc43)CCO2)c1 [Compound 16r],—,—,—,,—,—,—,—,—,—,—,,,> 10,,,,,,
"Cc1ccnc(OC[C@H]2CN(CCN3CCc4ccccc43)CCO2)c1 [Compound 17r, (R)-4-(2-(Indolin-1-yl)ethyl)-2-(((4-methylpyridin-2-yl)oxy)methyl)morpholine]",,—,—,,—,—,—,—,—,—,—,0.788,,> 10,,,,,,
"O=C(CN1CCO[C@H](COc2ccccc2)C1)N1CCc2ccccc21 [Compound 18s, (S)-1-(Indolin-1-yl)-2-(2-(phenoxymethyl)morpholino)ethanone]",,—,—,—,—,—,—,—,—,—,—,6.42,,,,,,,,
"c1ccc(OC[C@@H]2CN(CCN3CCc4ccccc43)CCO2)cc1 [Compound 19s, (S)-4-(2-(Indolin-1-yl)ethyl)-2-(phenoxymethyl)morpholine]",,,,,—,—,,—,,,,1.44,2.83,1.35,2.72,0.59,0.342,7.21,0.468,
"O=C(CN1CCO[C@@H](COc2cccnc2)C1)N1CCc2ccccc21 [Compound 20r, (R)-1-(Indolin-1-yl)-2-(2-((pyridin-3-yloxy)methyl)morpholino)ethanone]",,—,—,—,—,—,—,—,—,—,—,8.81,,,,,,,,
"O=C(CN1CCO[C@H](COc2cccnc2)C1)N1CCc2ccccc21 [Compound 20s, (S)-1-(Indolin-1-yl)-2-(2-((pyridin-3-yloxy)methyl)morpholino)ethanone]",,—,—,—,—,—,—,—,—,—,—,7.64,,,,,,,,
"c1cncc(OC[C@H]2CN(CCN3CCc4ccccc43)CCO2)c1 [Compound 21r, (R)-4-(2-(Indolin-1-yl)ethyl)-2-((pyridin-3-yloxy)methyl)morpholine]",—,—,—,,—,—,—,—,—,—,—,,,> 10,,,,,,
"c1cncc(OC[C@@H]2CN(CCN3CCc4ccccc43)CCO2)c1 [Compound 21s, (S)-4-(2-(Indolin-1-yl)ethyl)-2-((pyridin-3-yloxy)methyl)morpholine]",—,,—,,—,—,—,,,—,—,,8.36,> 10,,,> 10,,,> 10
"Clc1cccc(OC[C@H]2CN(CCN3CCc4ccccc43)CCO2)c1 [Compound 23r, (R)-2-((3-Chlorophenoxy)methyl)-4-(2-(indolin-1-yl)ethyl)morpholine]",,—,—,—,—,—,—,—,,—,—,,,,,,> 10,,,
"Clc1cccc(OC[C@@H]2CN(CCN3CCc4ccccc43)CCO2)c1 [Compound 23s, (S)-2-((3-chlorophenoxy)methyl)-4-(2-(indolin-1-yl)ethyl)morpholine]",,,,,—,—,,—,,,—,,6.65,2.04,9.04,1.12,1.89,6.64,,
"COc1cccc(OC[C@@H]2CN(CCN3CCc4ccccc43)CCO2)c1 [Compound 25s, (S)-4-(2-(Indolin-1-yl)ethyl)-2-((3-methoxyphenoxy)methyl)morpholine]",,,,,—,—,,,,—,—,,8.29,8.37,8.35,1.98,10,,,8.53
